Measured values from US9745305B2, “Modulators of methyl modifying enzymes, compositions and uses thereof” (Constellation Pharmaceuticals, Inc., priority 2013, dated 2017).

Tested on: H3K27me3 mark in Hela cells expressing wild type EZH2
Assay: H3K27me3 MSD Hela Assay
Format: cell-based
Settings: Homo sapiens, HeLa, 96 h, read-out: H3K27me3_MSD_HeLa (EC50)
Experimental: H3K27me3 MSD Hela Assay. Trypsinized HeLa cells were counted and diluted in 10% DMEM (Life Technologies, Cat. #10569) to 5000 cells/75 μL. Seventy-five μL of cells were place in each well of a 96-well flat-bottomed plate and incubated at 37° C. for 4 hours. Twenty-five μL of test compound (at various concentrations) was added to the cells and incubation continued at 37° C. for 96 hours. Media was then removed and the cells rinsed once with ice cold PBS. Forty μL of ice-cold MSD Buffer AT (10 mM HEPES, pH 7.9, 5 mM MgCl2, 0.25M sucrose, Benzonase (1:10000), 1% Triton X-100 supplemented with fresh 1× Protease Inhibitor cocktail and 1 mM 4-(2-Aminoethyl)benzenesulfonyl fluoride hydrochloride (AEBSF)) was added to each well and the plates placed on ice for 30 minutes. Ten μL of 5M NaCl was then added to each well and incubation on ice continued for another 15 minutes. The material in each well was suspended pipetting up and down and then transferred to a new 96 well plate. The emptied wells were rinsed with 150 uL ice-cold 20 mM Tris pH 7.5, 1 mM EDTA, 1 mM EGTA, supplemented with fresh 1× Protease Inhibitor cocktail and 1 mM AEBSF (“NO salt NO detergent buffer) and transferred to the respective wells in the new plate. Three hundred μL of NO Salt NO detergent buffer was then added to each well of lysates and the plates frozen at −80° C.
On the same day, an appropriate number of MSD standard bind 96-well plates were coated with 30 μL/well of total H3 capture antibody (Millipore, Cat # MAB3422) at 1 μg/mL concentration in PBS. The antibody solution was evenly distributed first by tapping gently on the sides of the plates and then by shaking the plates for a few minutes at 1000 rpm. Antibody coated plates were stored at 4° C. overnight.
The next day the lysates are thawed to RT. The antibody coated MSD plates are washed 3× with TBS-T (Tris-buffered saline (Fisher Scientific, Cat #BP2471-1)+0.2% Tween-20). One-hundred fifty μL of 5% Blocker A in TBS-T is added to each well. The wells are covered and shaken on a shaker at RT for one hour. The Blocker A step is repeated a second time. After removing the blocker, 25 μL of cell lysate is transferred into each antibody coated well. The plates are shaken for 2 hours at RT, the lysate removed and the plates again washed with Blocker A in TBS-T. Twenty-five μL of appropriate freshly prepared antibody mix (including both primary and secondary antibodies) is added to each well and the plates shaken for 1 hour at RT.
Both H3 antibodies were obtained from Cell Signalling (Cat #s 4499 and 9733). The goat anti-rabbit antibody was obtained from Meso-Scale Discovery (Cat #R32AB-1).
The antibody mix was then removed and the wells washed with Blocker A. One hundred-fifty μL of freshly prepared 1×MSD Read Buffer (Meso-Scale Discovery; Cat #R927C-2) was then added to each well and the plates read on a MSD Sector 2400 Plate Reader.
Data was analyzed using Assay Assistant (Constellation Pharmaceuticals In-house product) and Activity Base (IDBS Ltd, Surrey, UK) template. Data files were imported to Assay Assistant and assay conditions were specified. A unique Analysis ID was created and the data files exported to Activity Base. An analysis template was created on Activity Base to measure dose-dependent inhibition of H3K27me3 mark and cell viability respectively. Readout of DMSO wells were used to normalize the data. Resulting curves were fitted using Activity base software Model 205 (IDBS Ltd, Surrey, UK). The data was checked for quality, validated and integrated in excel format using SARview (IDBS Ltd, Surrey, UK).

Row | Structure (SMILES) | EC50 [nM]
1 | COc1cc(C)[nH]c(=O)c1CNC(=O)c1c(C)c(C(C)c2ccccc2)n2ncccc12 (single isomer, unassigned) [Compound 105, (R or S)-N-((4-methoxy-6-methyl-2-oxo-1,2-dihydropyridin-3-yl)methyl)-6-methyl-7-(1-phenylethyl)pyrrolo[1,2-b]pyridazine-5-carboxamide] | < 400
2 | COc1cc(C)[nH]c(=O)c1CNC(=O)c1c(C)c(C(C)c2ccccc2)n2ncccc12 (racemic) [Compound 101, (±)-N-((4-methoxy-6-methyl-2-oxo-1,2-dihydropyridin-3-yl)methyl)-6-methyl-7-(1-phenylethyl)pyrrolo[1,2-b]pyridazine-5-carboxamide] | < 400
3 | COc1cc(C)[nH]c(=O)c1CNC(=O)c1c(C)c(C(C)C2CCOCC2)n2ncccc12 (racemic) [Compound 116, (±)-N-((4-methoxy-6-methyl-2-oxo-1,2-dihydropyridin-3-yl)methyl)-6-methyl-7-(1-(tetrahydro-2H-pyran-4-yl)ethyl)pyrrolo[1,2-b]pyridazine-5-carboxamide] | < 400
